Data set [1] deals with algae cells. Put plainly: Loading of algae with astaxanthin, microscopic examination. Set-up: species or system Cyclotella meneghiniana. The conditions noted are these: over 24 hours. On the procedure: A rehydration composition was prepared by adding 1 g of synthetic astaxanthin to 200 ml of fresh, potable water, then microwaving 3 times for 1 min each time.
The algae were then rehydrated by blending the astaxanthin solution (suspension) together with 1 litre of potable water and 200 mg of the algae powder for 2 minutes.
Astaxanthin particles were able to penetrate inside algae cells and were also absorbed by the porous surface of the siliceous exoskeleton (frustule).

Data set [2] relates to algae cells. As to the kind of experiment: Loading of freeze-dried algae with vitamin C by rehydration; vitamin C in algal cells by HPLC-DAD. Further details: species or system Cyclotella meneghiniana. The conditions noted are these: rehydration in 5 g/L vitamin C; incubation at 28° C. The procedure:
A rehydration composition was prepared by dissolving 500 mg per litre vitamin C in filtered natural (North Sea) seawater (20° C.). A second rehydration composition was prepared by dissolving 5 g per litre vitamin C in the seawater. As a control, a third rehydration composition consisted of just the clean seawater without any vitamin C added.
The algae were then rehydrated by adding one of the rehydration compositions to a standard kitchen blender (Kenwood KM230, 650 W, with blender attachment). The blender was switched on at a moderate mixing speed (speed 4) to agitate the rehydration composition. Then 10 g per litre of freeze-dried algae was added to the rehydration composition while mixing, and the freeze-dried algae was allowed to blend into the rehydration composition for 2 minutes. Cell integrity after rehydration was verified using a microscope.
Each of the three rehydration compositions comprising rehydrated algae were split into six replicates. Three replicates of each composition were harvested immediately after rehydration. The remaining three replicates of the treatment groups were incubated in a water bath at 28° C. and provided with moderate aeration. […]
The concentration of vitamin C in the algal cells of the treatment groups and control at the different time points were then analysed by high-performance liquid chromatography with Diode-Array Detection.

These results are taken from patent US20210196816A1, “ALGAE COMPRISING THERAPEUTIC AND/OR NUTRITIONAL AGENTS” (TomAlgae CVBA, priority 2016, published 2021).

As for `CC1=C(/C=C/C(C)=C/C=C/C(C)=C/C=C/C=C(C)/C=C/C=C(C)/C=C/C2=C(C)C(=O)[C@@H](O)CC2(C)C)C(C)(C)C[C@H](O)C1=O` [astaxanthin], the “stability of association of astaxanthin particles within algae cells” value in data set [1] is reported as “remained stable”.
Regarding `O=C1O[C@H]([C@@H](O)CO)C(O)=C1O` [vitamin C], the “time for which the vitamin C level in the algae cells was maintained” value in data set [2] was no less than 6 h.
